Experimental data: ChEMBL document CHEMBL3769377, “A synthesis, in silico, in vitro and in vivo study of thieno[2,3-b]pyridine anticancer analogues” (Medchemcomm, 2015)
pIC50: −log10 of the molar value. Calls of active or inactive are those of the source. The rule behind the calls is not given here.

Tests used:
[1] = Growth inhibition of human NCI60 cells assessed as cell growth at 10 uM after 48 hrs by sulforhodamine B assay relative to control; format: functional; conditions: NCI60, 48 h, read-out: Activity
[2] = system: 786-0; experiment: Cytotoxicity against human 786-0 cells assessed as cell death at 100 uM after 48 hrs by sulforhodamine B assay; format: functional, cell-based
[3] = system: MDA-MB-435; experiment: Cytotoxicity against human MDA-MB-435 cells assessed as cell death at 100 uM after 48 hrs by sulforhodamine B assay; format: functional, cell-based
[4] = Cytotoxicity against human SF539 cells after 48 hrs by sulforhodamine B assay; format: functional; conditions: SF-539, 48 h; for CC50: read-out: LC50 (the source's name)
[5] = system: MDA-MB-468; experiment: Cytotoxicity against human MDA-MB-468 cells after 48 hrs by sulforhodamine B assay; format: functional; conditions: MDA-MB-468, 48 h; for CC50: read-out: LC50 (the source's name)
[6] = system: 786-0; experiment: Cytotoxicity against human 786-0 cells after 48 hrs by sulforhodamine B assay; format: functional; conditions: 786-0, 48 h; for CC50: read-out: LC50 (the source's name)
[7] = system: MDA-MB-435; experiment: Cytotoxicity against human MDA-MB-435 cells after 48 hrs by sulforhodamine B assay; format: functional; conditions: MDA-MB-435, 48 h; for CC50: read-out: LC50 (the source's name)
[8] = system: MDA-MB-468; experiment: Cytotoxicity against human MDA-MB-468 cells assessed as cell death at 100 uM after 48 hrs by sulforhodamine B assay; format: functional, cell-based
[9] = system: SF-539; experiment: Cytotoxicity against human SF539 cells assessed as assessed as cell death at 100 uM after 48 hrs by sulforhodamine B assay; format: functional, cell-based
[10] = molecular target: Tyrosyl-DNA phosphodiesterase 1 (Homo sapiens, UniProt Q9NUW8); experiment: Inhibition of recombinant human N-terminal His-tagged TDP1 (1824 bp) expressed in Escherichia coli BL21(DE3) cells using 5'-(5,6 FAM-AAC GTC AGG GTC TTC C-BHQ1)-3' as substrate measured every 1 min by RT-PCR method
Chain of Tyrosyl-DNA phosphodiesterase 1 (Q9NUW8 whole entry): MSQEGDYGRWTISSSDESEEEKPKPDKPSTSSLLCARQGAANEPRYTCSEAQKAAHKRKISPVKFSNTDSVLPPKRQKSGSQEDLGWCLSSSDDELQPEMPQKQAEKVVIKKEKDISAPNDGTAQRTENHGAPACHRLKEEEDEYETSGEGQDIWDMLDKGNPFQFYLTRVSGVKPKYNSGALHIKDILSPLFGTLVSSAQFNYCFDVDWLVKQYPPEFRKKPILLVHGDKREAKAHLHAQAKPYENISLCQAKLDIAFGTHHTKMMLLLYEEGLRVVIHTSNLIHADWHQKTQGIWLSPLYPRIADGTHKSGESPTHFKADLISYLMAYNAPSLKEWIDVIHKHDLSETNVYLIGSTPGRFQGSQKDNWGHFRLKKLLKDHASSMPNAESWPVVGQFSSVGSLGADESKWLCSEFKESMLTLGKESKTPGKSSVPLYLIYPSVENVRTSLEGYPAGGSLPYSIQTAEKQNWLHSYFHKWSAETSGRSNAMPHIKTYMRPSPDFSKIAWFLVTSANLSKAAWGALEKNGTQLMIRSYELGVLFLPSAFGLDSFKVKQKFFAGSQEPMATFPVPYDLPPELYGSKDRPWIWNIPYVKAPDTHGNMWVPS

[11] = system: SF-539; experiment: Cytotoxicity against human SF539 cells assessed as growth inhibition at 100 uM after 48 hrs by sulforhodamine B assay; format: functional, cell-based

## Nc1c(C(=O)Nc2ccccc2C(F)(F)F)sc2nc3c(cc12)CCCCCC3
[1]
  growth at 10 µM: 80.2%

## CCC1CCc2nc3sc(C(=O)Nc4ccccc4F)c(N)c3cc2C1 (racemic)
[2]
  Activity: inactive
[3]
  Activity: inactive
[4]
  GI50: 10000 nM
[5]
  GI50: 347 nM
[6]
  GI50: 41700 nM
[7]
  GI50: 133 nM
[8]
  Activity: inactive
[1]
  growth at 10 µM: 61.1%
[9]
  Activity: inactive

## Cc1cccc(NC(=O)c2sc3nc4c(cc3c2N)CCCC4)c1
[2]
  Activity: inactive
[3]
  Activity: inactive
[4]
  GI50: 4740 nM
[5]
  GI50: 1750 nM
[6]
  GI50: 4130 nM
[7]
  GI50: 305 nM
[8]
  Activity: inactive
[1]
  growth at 10 µM: 39.9%
[9]
  Activity: inactive

## Nc1c(C(=O)Nc2ccccc2C(F)(F)F)sc2nc3c(cc12)CCCC3
[1]
  growth at 10 µM: 90.6%

## CCC1CCc2nc3sc(C(=O)Nc4ccccc4C)c(N)c3cc2C1 (racemic)
[2]
  Activity: inactive
[4]
  GI50: 398 nM
[5]
  GI50: 244 nM
[6]
  GI50: 371 nM
[7]
  GI50: 104 nM
[8]
  Activity: inactive
[1]
  growth at 10 µM: 36.5%
[9]
  Activity: inactive

## Nc1c(C(=O)Nc2ccccc2)sc2nc3c(cc12)CCC3
[1]
  growth at 10 µM: 79.5%

## CCC1CCc2nc3sc(C(=O)Nc4cccc(C)c4)c(N)c3cc2C1 (racemic)
[1]
  growth at 10 µM: 69.7%

## Nc1c(C(=O)Nc2cccc(C(F)(F)F)c2)sc2nc3c(cc12)CCCCC3
[3]
  Activity: inactive
[4]
  GI50: 1940 nM
  CC50: 11300 nM
[5]
  GI50: 394 nM
  CC50: 31000 nM
[6]
  GI50: 1580 nM
  CC50: 6240 nM
[7]
  GI50: 2530 nM
[1]
  growth at 10 µM: 10%

## Nc1c(C(=O)Nc2ccccc2F)sc2nc3c(cc12)CCCC3
[1]
  growth at 10 µM: 34.5%

## Nc1c(C(=O)Nc2ccccc2Cl)sc2nc3c(cc12)CCCC3
[1]
  growth at 10 µM: 99.4%

## COc1cccc(NC(=O)c2sc3nc4c(cc3c2N)CCCC4)c1
[2]
  Activity: inactive
[4]
  GI50: 368 nM
[5]
  GI50: 239 nM
[6]
  GI50: 420 nM
[7]
  GI50: 150 nM
  CC50: 13500 nM
[8]
  Activity: inactive
[1]
  growth at 10 µM: 28.2%
[9]
  Activity: inactive

## Nc1c(C(=O)Nc2ccccc2C(F)(F)F)sc2nc3c(cc12)CCC3
[10]
  pIC50: < 4.82

## Nc1c(C(=O)Nc2ccccc2)sc2nc3c(cc12)CCCCCC3
[4]
  GI50: 217 nM
  CC50: 3200 nM
[5]
  GI50: 291 nM
[6]
  GI50: 354 nM
  CC50: 10200 nM
[7]
  GI50: 52 nM
  CC50: 897 nM
[8]
  Activity: inactive
[1]
  growth at 10 µM: 12.5%

## Nc1c(C(=O)Nc2c(Cl)cccc2Cl)sc2nc3c(cc12)CCCCC3
[1]
  growth at 10 µM: 52.1%

## Nc1c(C(=O)Nc2ccccc2F)sc2nc3c(cc12)CCC3
[1]
  growth at 10 µM: 102%

## Nc1c(C(=O)Nc2ccccc2)sc2nc3c(cc12)CCCCC3
[2]
  Activity: inactive
[3]
  Activity: inactive
[4]
  GI50: 307 nM
  CC50: 94300 nM
[5]
  GI50: 254 nM
[6]
  GI50: 465 nM
[7]
  GI50: 205 nM
[8]
  Activity: inactive
[1]
  growth at 10 µM: 14.7%

## Nc1c(C(=O)Nc2cccc(C(F)(F)F)c2)sc2nc3c(cc12)C(=O)CC3
[10]
  pIC50: 5.77

## Nc1c(C(=O)Nc2cccc(C(F)(F)F)c2)sc2nc3c(cc12)CCCC3
[1]
  growth at 10 µM: 88.1%

## Nc1c(C(=O)Nc2ccccc2Cl)sc2nc3c(cc12)CCCCCC3
[10]
  pIC50: 6.00
[4]
  GI50: 2650 nM
  CC50: 46600 nM
[5]
  GI50: 2250 nM
[6]
  GI50: 1750 nM
  CC50: 6120 nM
[7]
  GI50: 275 nM
  CC50: 20900 nM
[8]
  Activity: inactive
[1]
  growth at 10 µM: 29%

## Cc1cccc(NC(=O)c2sc3nc4c(cc3c2N)CCC4)c1C
[4]
  GI50: 241 nM
  CC50: 72400 nM
[5]
  GI50: 197 nM
  CC50: 71200 nM
[6]
  GI50: 367 nM
  CC50: 14300 nM
[7]
  GI50: 52 nM
  CC50: 22700 nM
[1]
  growth at 10 µM: 23.6%

## Nc1c(C(=O)Nc2cccc(C(F)(F)F)c2)sc2nc3c(cc12)CCCCCC3
[10]
  pIC50: 6.30
[4]
  GI50: 1710 nM
  CC50: 6650 nM
[5]
  GI50: 798 nM
  CC50: 15400 nM
[6]
  GI50: 1600 nM
  CC50: 6070 nM
[7]
  GI50: 2100 nM
  CC50: 59200 nM
[1]
  growth at 10 µM: 7%

## CCC1CCc2nc3sc(C(=O)Nc4cccc(F)c4)c(N)c3cc2C1 (racemic)
[2]
  Activity: inactive
[3]
  Activity: inactive
[5]
  GI50: 471 nM
[6]
  GI50: 701 nM
[7]
  GI50: 110 nM
[11]
  growth inhibition (GI): inactive
[8]
  Activity: inactive
[1]
  growth at 10 µM: 60.3%
[9]
  Activity: inactive

## Nc1c(C(=O)Nc2ccccc2)sc2nc3c(cc12)CCCC3
[2]
  Activity: inactive
[3]
  Activity: inactive
[4]
  GI50: 416 nM
[5]
  GI50: 303 nM
[6]
  GI50: 656 nM
[7]
  GI50: 172 nM
[8]
  Activity: inactive
[1]
  growth at 10 µM: 30.3%
[9]
  Activity: inactive
